Drawing on patent publication US20250122171A1, “Substituted Amine Compounds, Compositions and Methods of Use” (Deep Apple Therapeutics, Inc., priority 2023, published 2025), this text covers IC50 and activity for 22 compounds.

By IC50 is commonly meant the concentration needed to halve the response being measured.

Type in all cases: cell-based
For one assay, the target named is T1, human MRGPRX2 (Homo sapiens, UniProt Q96LB1).
T1 construct: expressed in transfected cells; host or cells: FlpIn TRex HEK293 (TRex-MRGPRX2-HEK), doxycycline-induced
T1 sequence (Q96LB1 1-330): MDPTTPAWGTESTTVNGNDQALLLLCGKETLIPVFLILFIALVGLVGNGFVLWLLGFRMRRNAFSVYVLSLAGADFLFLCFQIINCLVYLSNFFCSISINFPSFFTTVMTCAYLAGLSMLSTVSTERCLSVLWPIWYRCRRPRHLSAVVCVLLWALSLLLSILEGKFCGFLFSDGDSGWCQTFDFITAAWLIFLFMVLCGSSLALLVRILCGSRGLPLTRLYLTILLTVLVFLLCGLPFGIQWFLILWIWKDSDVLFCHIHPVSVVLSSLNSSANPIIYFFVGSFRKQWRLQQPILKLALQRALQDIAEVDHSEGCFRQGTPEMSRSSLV
As to the kind of experiment: MRGPRX2 Activity Assay (IP-1 HTRF, antagonist mode). The note with it: FlpIn TRex-MRGPRX2-HEK293 cells; versus 1 μM Cortistatin-14 agonist; 30 minutes preincubation. In a few lines:
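Doxycycline-induced (100 ng/mL, 18-24 h) TRex HEK293 cells stably expressing human MRGPRX2, in HBSS/20 mM HEPES/0.1% BSA/10 mM LiCl. Compounds (top final 30 uM, 1% DMSO) preincubated 30 min, then agonist stimulation 1 h at 37° C without wash. IP-1 accumulation read by HTRF; IC50 from 4-parameter fit.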

Assay [1] has as its system LAD-2 cells. As to the kind of experiment: LAD2 Degranulation Assay (Protocol 1), β-hexosaminidase release. Conditions: Homo sapiens, 1 μM Cortistatin-14, 30 minute preincubation, top concentration 3 μM. As to the method: (§1) LAD-2 cells were maintained at 37° C. with 5% CO2 and grown in complete StemPro-34 media supplemented with 1% L-Glutamate, 1% penicillin/streptomycin, and 250 ng/mL human SCF.
On the day of experiment, cells were collected by centrifugation and seeded in 384-well assay plates, at 4,000 cells per well in 10 μl freshly made assay buffer (10 mM HEPES, 130 mM NaCl, 5 mM KCl, 1.8 mM CaCl2), 1.0 mM MgCl2, 5.6 mM glucose, 0.1% BSA, pH=7.40). For dose-response assays, compounds solubilized in 100% DMSO at 30 mM were serially diluted (1:3) first in 100% DMSO, and 2 intermediate dilutions with assay buffer were used to establish a final top concentration of 3 μM (in assay plate). Final DMSO concentration was kept constant at 0.1% across plates for all assays. Cortistatin-14 at 30 mM stock concentration was solubilized in HBSS+0.1% BSA, stored at −20° C. in 5 μl aliquots and discarded after one freeze-thaw cycle. Final concentration of agonist used in both dose-response and single point assays was 1 μM, prepared in assay buffer.
(§2) Antagonist equilibrium was established with 30 minute preincubation, followed by no wash, direct addition, and stimulation of agonist for 30 minutes at 37° C. For detection of β-hexosaminidase activity, assay plates were centrifuged and 5 μl of cell-free supernatant from each assay well was transferred to a black-walled black-bottomed 384-well plate. Substrate solution (1 mM 4-Methylumbelliferyl N-acetyl-β-D-glucosaminide in citrate buffer, pH=4.5, 15 μl) was added to each well and plates were incubated for 1 hour at 37° C. The plate was read on an EnVision XCite plate reader for umbelliferone fluorescence intensity (λex=355 nm, λem=460 nm). Background-subtracted data was analyzed using either GraphPad Prism or a custom Python script to calculate IC50 using either Log[Antagonist] vs. response (4 parameter) nonlinear regression (dose-response assays).

Assay [2] deals with LAD-2 cells. As to the kind of experiment: LAD2 Degranulation Assay (Protocol 2), β-hexosaminidase release. Conditions: Homo sapiens; for IC50: 0.5 μM Cortistatin-14, 2 h preincubation, cells without SCF 18-24 hours, top concentration 3 μM; for activity at 0.25 µM: single point 250 nM, 0.5 μM Cortistatin-14, % control β-hexosaminidase activity. The protocol:
as §1
18-24 hours prior to experiment, LAD-2 cells were collected and transferred to growth media without SCF. On the day of experiment, cells were collected by centrifugation and seeded in 384-well assay plates, at 4,000 cells per well in 17 μl freshly made assay buffer (10 mM HEPES, 137 mM NaCl, 2.7 mM KCl, 1.8 mM CaCl2), 1.0 mM MgCl2, 5.6 mM glucose, 0.4 mM NaH2PO4, 0.04% BSA, pH=7.40). For dose-response assays, compounds solubilized in 100% DMSO at 30 mM were serially diluted (1:3) first in 100% DMSO, and 2 intermediate dilutions with assay buffer were used to establish a final top concentration of 3 μM (in assay plate). For single point assays, dilution of DMSO stocks to 250 nM (in assay plate) was performed in the same manner as described for dose-response assays. Final DMSO concentration was kept constant at 0.1% across plates for all assays. Cortistatin-14 at 30 mM stock concentration was solubilized in HBSS+0.1% BSA, stored at −20° C. in 5 μl aliquots and discarded after one freeze-thaw cycle. Final concentration of agonist used in both dose-response and single point assays was 0.5 μM, prepared in assay buffer.
as §2, with “with 2 h” for “with 30 minute”, “[…])” for “15 μl)”, “(dose-response assays) or % control β-hexosaminidase activity (single point” for “(dose-response”

Bounds are passed on as bounds.

As to `C[C@@H](C(=O)Nc1cn(Cc2ccc(F)cc2F)c(C(F)(F)F)n1)N1CCC(F)(F)[C@@H](c2cc[n+]([O-])cc2)C1` (single isomer, unassigned) [Compound 7], the figures for the IC50 at human MRGPRX2 and with LAD-2 cells [1] were 45 nM and greater than 3000 nM, respectively.
On to `Cc1nc(NC(=O)[C@H](C)N2CCC(F)(F)[C@@H](c3cc[n+]([O-])cc3)C2)cn1Cc1ccc(F)cc1F` (single isomer, unassigned) [Compound 9], for which the concentration for half-maximal inhibition (IC50) came to 17 nM on human MRGPRX2 and 28 nM with LAD-2 cells [1].
As for `Cc1nc(NC(=O)[C@H](C)N2CCC(F)(F)[C@@H](c3cc[n+]([O-])cc3)C2)cn1Cc1cc(F)cc(F)c1` (single isomer, unassigned) [Compound 19], the half-inhibitory concentration (IC50) at human MRGPRX2 came out at 2.1 nM; with LAD-2 cells [1], 1.6 nM.
On to `Cc1nc(NC(=O)[C@H](C)N2CCC(F)(F)CC2)cn1Cc1cc(F)cc(F)c1` (single isomer, unassigned) [Compound 21], for which the concentration for half-maximal inhibition (IC50) at human MRGPRX2 is 3.3 nM; with LAD-2 cells [1] it was 0.7 nM.
Turning to `C[C@H](C(=O)Nc1cn(Cc2cc(F)cc(F)c2)c(C(F)(F)F)n1)N1CCC(F)(F)[C@@H](c2cc[n+]([O-])cc2)C1` (single isomer, unassigned) [Compound 26], the IC50 on human MRGPRX2 was 13 nM; with LAD-2 cells [1], 40 nM.
As to `C[C@@H](C(=O)Nc1cn(Cc2cc(F)cc(F)c2)c(C(F)F)n1)N1CCC(F)(F)[C@@H](c2c[nH]c(=O)c(CO)c2)C1` (single isomer, unassigned) [Compound 490], the IC50 on human MRGPRX2 stood at 3.5 nM; with LAD-2 cells [2], 34 nM.
In the case of `C[C@@H](C(=O)Nc1cn2c(n1)CC[C@@H]2c1cc(F)cc(F)c1)N1CCC(F)(F)[C@@H](c2ccc(=O)[nH]c2)C1` (single isomer, unassigned) [Compound 493], the IC50 on human MRGPRX2 was greater than 30000 nM; with LAD-2 cells [2], greater than 3000 nM.
Consider `C[C@H](C(=O)Nc1cn2c(n1)CC[C@@H]2c1cc(F)cc(F)c1)N1CCCCC1` (single isomer, unassigned) [Compound 498], for which the figures for the IC50 at human MRGPRX2 and with LAD-2 cells [2] were 686 nM and 79 nM, respectively.
The matching figures for `C[C@H](C(=O)Nc1cn2c(n1)CC[C@H]2c1cc(F)cc(F)c1)N1CCCCC1` (single isomer, unassigned) [Compound 499]: greater than 30000 nM and greater than 3000 nM.
For `C[C@@H](C(=O)Nc1cn2c(n1)CC[C@H]2c1cc(F)cc(F)c1)N1CCCCC1` (single isomer, unassigned) [Compound 500], in that order: greater than 30000 nM and greater than 3000 nM.
On to `C[C@@H](C(=O)Nc1cc2n(n1)CC[C@H]2c1cc(F)cc(F)c1)N1CCC(F)(F)[C@@H](c2ccc(=O)[nH]c2)C1` (single isomer, unassigned) [Compound 531], for which the IC50 was found to be 592 nM on human MRGPRX2 and 614 nM in the assay on LAD-2 cells [2].
`C[C@@H](C(=O)Nc1cn2c(n1)CC[C@@H]2c1cc(F)cc(F)c1)N1CCC(F)(F)[C@@H](c2c[nH]c(=O)c([C@H](N)C(F)F)c2)C1` (single isomer, unassigned) [Compound 536]: the activity at 0.25 µM in the assay with LAD-2 cells [2] was 89%.
Turning to `C[C@@H](C(=O)Nc1cn2c(n1)CC[C@@H]2c1cc(F)cc(F)c1)N1CCC(F)(F)[C@H](c2c[nH]c(=O)c([C@H](N)C(F)F)c2)C1` (single isomer, unassigned) [Compound 537], the activity at 0.25 µM in the assay on LAD-2 cells [2] was 10%.
For the compound `C[C@@H](C(=O)Nc1cn2c(n1)CC[C@@H]2c1cc(F)cc(F)c1)N1CCC(F)(F)[C@@H](c2c[nH]c(=O)c([C@@H](N)C(F)F)c2)C1` (single isomer, unassigned) [Compound 538], the activity at 0.25 µM in the assay with LAD-2 cells [2] was determined as 81%.
Same read-out and setting: for `C[C@@H](C(=O)Nc1cn2c(n1)CC[C@@H]2c1cc(F)cc(F)c1)N1CCC(F)(F)[C@H](c2c[nH]c(=O)c([C@@H](N)C(F)F)c2)C1` (single isomer, unassigned) [Compound 539] the value was 12%.
Turning to `C[C@@H](C(=O)Nc1cn2c(n1)CC[C@@H]2c1cc(F)cc(F)c1)N1CCC(F)(F)[C@@H](c2c[nH]c(=O)c(C(N)C(F)(F)F)c2)C1` (single isomer, unassigned) [Compound 540], the activity at 0.25 µM with LAD-2 cells [2] was determined as 124%.
For the compound `C[C@@H](C(=O)Nc1cn2c(n1)CC[C@@H]2c1cc(F)cc(F)c1)N1CCC(F)(F)[C@H](c2c[nH]c(=O)c(C(N)C(F)(F)F)c2)C1` (single isomer, unassigned) [Compound 541], the activity at 0.25 µM with LAD-2 cells [2] amounted to 11%.
Consider `C[C@@H](C(=O)Nc1cn2c(n1)CC[C@@H]2c1cc(F)cc(F)c1)N1CCC(F)(F)[C@@H](c2c[nH]c(=O)c(CN3CCC(F)(F)CC3)c2)C1` (single isomer, unassigned) [Compound 542], for which the activity at 0.25 µM with LAD-2 cells [2] is 126%.
Consider `C[C@@H](C(=O)Nc1cn2c(n1)CC[C@@H]2c1cc(F)cc(F)c1)N1CCC(F)(F)[C@H](c2c[nH]c(=O)c(CN3CCC(F)(F)CC3)c2)C1` (single isomer, unassigned) [Compound 543], for which the activity at 0.25 µM with LAD-2 cells [2] was 59%.
As to `C[C@@H](C(=O)Nc1cn2c(n1)CC[C@@H]2c1cc(F)cc(F)c1)N1CCC(F)(F)C(c2c[nH]c(=O)c(CO)n2)C1` (stereo partly drawn) [Compound 544, (2S)-2-(4,4-difluoro-3-(6-(hydroxymethyl)-5-oxo-4,5-dihydropyrazin-2-yl)piperidin-1-yl)-N—((R)-5-(3,5-difluorophenyl)-6,7-dihydro-5H-pyrrolo[1,2-a]imidazol-2-yl)propanamide], the activity at 0.25 µM in the assay with LAD-2 cells [2] was 81%.
In the case of `C[C@@H](C(=O)Nc1cn2c(n1)CC[C@@H]2c1cc(F)cc(F)c1)N1CCC(F)(F)C(c2cc[n+]([O-])c(C(O)CO)c2)C1` (stereo partly drawn) [Compound 545, 4-(1-((S)-1-(((R)-5-(3,5-difluorophenyl)-6,7-dihydro-5H-pyrrolo[1,2-a]imidazol-2-yl)amino)-1-oxopropan-2-yl)-4,4-difluoropiperidin-3-yl)-2-(1,2-dihydroxyethyl)pyridine 1-oxide], in the assay with LAD-2 cells [2], the activity at 0.25 µM was 16%.
Regarding `C[C@@H](C(=O)Nc1cn2c(n1)CC[C@@H]2c1cc(F)cc(F)c1)N1CCC(F)(F)C(c2c[nH]c(=O)c(C(O)CO)c2)C1` (stereo partly drawn) [Compound 546, (2S)—N—((R)-5-(3,5-difluorophenyl)-6,7-dihydro-5H-pyrrolo[1,2-a]imidazol-2-yl)-2-(3-(5-(1,2-dihydroxyethyl)-6-oxo-1,6-dihydropyridin-3-yl)-4,4-difluoropiperidin-1-yl)propanamide], in the assay on LAD-2 cells [2], the activity at 0.25 µM was found to be 34%.
